Results taken from PubChem BioAssay AID2060618 (Molecular Pharmacology Branch, DTP, NCI, 2025).

System: 454973-116-R2-J3-PDC spheroids, percent test/control viability
Assay: Anticancer human tumor 454973-116-R2-J3-PDC patient-derived pancreatic carcinoma cell line growth inhibition [CLK]
Conditions: spheroids with HUVEC and MSC; for IC50: curve of first compound; for viability, T/C: stronger effect = lower value
Outline: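 Patient-derived tumor cells grown as complex spheroids with HUVEC endothelial cells and mesenchymal stem cells, treated with drug combinations. Concentrations descend in half-log steps from near clinical Cmax, or from 10 microM if Cmax unknown.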

[1] = second compound 0.0316 µM, first compound 0.0316 µM
[2] = second compound 0.0316 µM, first compound 0.1 µM
[3] = second compound 0.0316 µM, first compound 0.316 µM
[4] = second compound 0.0316 µM, first compound 1 µM
[5] = second compound 0.0316 µM, first compound 3.16 µM
[6] = second compound 0.0316 µM, first compound 10 µM
[7] = second compound 0.1 µM, first compound 0.0316 µM
[8] = second compound 0.1 µM, first compound 0.1 µM
[9] = second compound 0.1 µM, first compound 0.316 µM
[10] = second compound 0.1 µM, first compound 1 µM
[11] = second compound 0.1 µM, first compound 3.16 µM
[12] = second compound 0.1 µM, first compound 10 µM
[13] = second compound 0.316 µM, first compound 0.0316 µM
[14] = second compound 0.316 µM, first compound 0.1 µM
[15] = second compound 0.316 µM, first compound 0.316 µM
[16] = second compound 0.316 µM, first compound 1 µM
[17] = second compound 0.316 µM, first compound 3.16 µM
[18] = second compound 0.316 µM, first compound 10 µM
[19] = second compound 1 µM, first compound 0.0316 µM
[20] = second compound 1 µM, first compound 0.1 µM
[21] = second compound 1 µM, first compound 0.316 µM
[22] = second compound 1 µM, first compound 1 µM
[23] = second compound 1 µM, first compound 3.16 µM
[24] = second compound 1 µM, first compound 10 µM
[25] = second compound 3.16 µM, first compound 0.0316 µM
[26] = second compound 3.16 µM, first compound 0.1 µM
[27] = second compound 3.16 µM, first compound 0.316 µM
[28] = second compound 3.16 µM, first compound 1 µM
[29] = second compound 3.16 µM, first compound 3.16 µM
[30] = second compound 3.16 µM, first compound 10 µM
[31] = second compound 10 µM, first compound 0.0316 µM
[32] = second compound 10 µM, first compound 0.1 µM
[33] = second compound 10 µM, first compound 0.316 µM
[34] = second compound 10 µM, first compound 1 µM
[35] = second compound 10 µM, first compound 3.16 µM
[36] = second compound 10 µM, first compound 10 µM
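Also: spheroids exposed to compounds for 7 days before readout.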

CC(=O)O[C@H]1C(=O)[C@@]2(C)[C@H]([C@H](OC(=O)c3ccccc3)[C@]3(O)C[C@H](OC(=O)[C@H](O)[C@@H](NC(=O)c4ccccc4)c4ccccc4)C(C)=C1C3(C)C)[C@]1(OC(C)=O)CO[C@@H]1C[C@@H]2O + CN1CCN(c2cc(C(=O)Nc3cc4cc(-c5cnn(C)c5)ccc4cn3)ccn2)CC1 was tested, and the IC50 (second compound 0.0316 µM) was under 31.6 nM, the IC50 (second compound 0.1 µM) was under 31.6 nM and the IC50 (second compound 0.316 µM) was under 31.6 nM. The IC50 (second compound 1 µM) was under 31.6 nM, the IC50 (second compound 3.16 µM) was under 31.6 nM and the IC50 (second compound 10 µM) was under 31.6 nM. It also gave a viability, T/C [1] of 7.05%, a viability, T/C [2] of 6.65% and a viability, T/C [3] of 6.57%. It also gave a viability, T/C [4] of 6.34%, a viability, T/C [5] of 6.67% and a viability, T/C [6] of 12.9%. The viability, T/C [7] was 5.8%, the viability, T/C [8] was 5.47% and the viability, T/C [9] was 3.95%. It also gave a viability, T/C [10] of 5.69%, a viability, T/C [11] of 4.88% and a viability, T/C [12] of 6.14%. It also gave a viability, T/C [13] of 1.6%, a viability, T/C [14] of 1.85% and a viability, T/C [15] of 2.44%. For the same compound, the viability, T/C [16] was 1.75%, the viability, T/C [17] was 1.77% and the viability, T/C [18] was 1.9%. It also gave a viability, T/C [19] of 0.11%, a viability, T/C [20] of 0.1% and a viability, T/C [21] of 0.92%. It also gave a viability, T/C [22] of 0.07%, a viability, T/C [23] of 0.08% and a viability, T/C [24] of 0.09%. The viability, T/C [25] was 0.14%, the viability, T/C [26] was 0.12% and the viability, T/C [27] was 0.21%. It also gave a viability, T/C [28] of 0.12%, a viability, T/C [29] of 0.15% and a viability, T/C [30] of 0.13%. The viability, T/C [31] was 0.14%, the viability, T/C [32] was 0.17% and the viability, T/C [33] was 0.19%. It also gave a viability, T/C [34] of 1.2%, a viability, T/C [35] of 0.16% and a viability, T/C [36] of 2.06%.
With COc1ccc([C@@H](O)c2cc(-c3ncnc4cc(N5CCOCC5)ccc34)c(F)cc2Cl)nn1 + CN1CCN(c2cc(C(=O)Nc3cc4cc(-c5cnn(C)c5)ccc4cn3)ccn2)CC1 the IC50 (second compound 0.0316 µM) was over 10000 nM, the IC50 (second compound 0.1 µM) was 2720 nM and the IC50 (second compound 0.316 µM) was under 31.6 nM. For the same compound, the IC50 (second compound 1 µM) was under 31.6 nM, the IC50 (second compound 3.16 µM) was under 31.6 nM and the IC50 (second compound 10 µM) was under 31.6 nM. For the same compound, the viability, T/C [1] was 93.8%, the viability, T/C [2] was 107% and the viability, T/C [3] was 101%. For the same compound, the viability, T/C [4] was 90.8%, the viability, T/C [5] was 73.5% and the viability, T/C [6] was 54.9%. For the same compound, the viability, T/C [7] was 74.8%, the viability, T/C [8] was 79.1% and the viability, T/C [9] was 71.5%. The viability, T/C [10] was 66.5%, the viability, T/C [11] was 47.4% and the viability, T/C [12] was 28.6%. For the same compound, the viability, T/C [13] was 1.76%, the viability, T/C [14] was 1.85% and the viability, T/C [15] was 2.44%. It also gave a viability, T/C [16] of 1.05%, a viability, T/C [17] of 1.4% and a viability, T/C [18] of 2.15%. For the same compound, the viability, T/C [19] was 0.11%, the viability, T/C [20] was 0.11% and the viability, T/C [21] was 2.22%. The viability, T/C [22] was 0.08%, the viability, T/C [23] was 0.07% and the viability, T/C [24] was 0.06%. For the same compound, the viability, T/C [25] was 0.09%, the viability, T/C [26] was 0.15% and the viability, T/C [27] was 0.16%. For the same compound, the viability, T/C [28] was 0.14%, the viability, T/C [29] was 0.11% and the viability, T/C [30] was 0.72%. For the same compound, the viability, T/C [31] was 2.12%, the viability, T/C [32] was 0.13% and the viability, T/C [33] was 0.29%. For the same compound, the viability, T/C [34] was 0.16%, the viability, T/C [35] was 0.99% and the viability, T/C [36] was 0.16%.
